Holding throughout (experiment): relative viability (nuclei count vs DMSO), 5 days (fraction); higher = more cells survive
Compound in assay [1]: CS(=O)(=O)c1ccc(-c2cnc(N)c(C(=O)Nc3ccccc3)n2)cc1 [VE-821] + CC1(C)CCC(c2ccc(Cl)cc2)=C(CN2CCN(c3ccc(C(=O)NS(=O)(=O)c4ccc(N[C@H](CCN5CCOCC5)CSc5ccccc5)c(S(=O)(=O)C(F)(F)F)c4)cc3)CC2)C1 [Navitoclax] (partner 0.5 µM)
The method, boiled down: (§1)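 Each reported value is a median over duplicate plates. It expresses relative viability: treated-well nuclei count divided by vehicle-well nuclei count. Lung cancer cell lines in 1536-well plates were dosed by pin tool a day after seeding, alone with one drug or with a fixed anchor-drug dose plus five library-drug doses (not always all listed) in √10 steps, and nuclei were counted after 5 days.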

Compound in assay [2]: CS(=O)(=O)c1ccc(C(=O)Nc2ccc(Cl)c(-c3ccccn3)c2)c(Cl)c1 [Vismodegib] + CCNC(=O)c1noc(-c2cc(C(C)C)c(O)cc2O)c1-c1ccc(CN2CCOCC2)cc1 [Luminespib] (partner 0.01 µM)
Summed up:
as §1

Compound in assay [3]: CS(=O)(=O)c1ccc(C(=O)Nc2ccc(Cl)c(-c3ccccn3)c2)c(Cl)c1 [Vismodegib] + CS(=O)(=O)N1CCN(Cc2cc3nc(-c4cccc5[nH]ncc45)nc(N4CCOCC4)c3s2)CC1 [Pictilisib] (partner 1 µM)
The method, boiled down: as §1

Data on 9 cell lines can be found in the supplement of paper PMC10307832.

As for NCI-H2347, the relative viability amounted to 0.941 in assay [1] (first compound 0.08 µM); 0.809 in assay [1] (first compound 0.253 µM); 0.775 in assay [1] (first compound 0.8 µM); 0.959 in assay [1] (first compound 2.53 µM); 0.763 in assay [1] (first compound 8 µM); 0.402 in assay [2] (first compound 0.08 µM). The relative viability was found to be 0.759 in assay [2] (first compound 0.253 µM); 0.709 in assay [2] (first compound 0.8 µM); 0.399 in assay [2] (first compound 2.53 µM); 0.586 in assay [2] (first compound 8 µM); 0.563 in assay [3] (first compound 0.08 µM); 0.664 in assay [3] (first compound 0.253 µM). The values for the relative viability in assay [3] (first compound 0.8 µM), in assay [3] (first compound 2.53 µM) and in assay [3] (first compound 8 µM) were 0.637, 0.609 and 0.717, respectively.

On to NCI-H2405, for which the relative viability in assay [1] (first compound 0.08 µM) was found to be 0.873; in assay [1] (first compound 0.253 µM), 0.888; in assay [1] (first compound 0.8 µM) it was 0.762; in assay [1] (first compound 2.53 µM) it was 0.942; in assay [1] (first compound 8 µM) it was 0.751; in assay [2] (first compound 0.08 µM), 0.735. Besides, the relative viability amounted to 0.691 in assay [2] (first compound 0.253 µM); 0.706 in assay [2] (first compound 0.8 µM); 0.686 in assay [2] (first compound 2.53 µM); 0.686 in assay [2] (first compound 8 µM); 0.441 in assay [3] (first compound 0.253 µM); 0.373 in assay [3] (first compound 0.8 µM). Besides, the relative viability in assay [3] (first compound 2.53 µM) amounted to 0.341; in assay [3] (first compound 8 µM), 0.531.

As for NCI-H3122, the relative viability amounted to 1.07 in assay [1] (first compound 0.08 µM); 1.02 in assay [1] (first compound 0.253 µM); 1.01 in assay [1] (first compound 0.8 µM); 1.02 in assay [1] (first compound 2.53 µM); 0.922 in assay [1] (first compound 8 µM); 0.109 in assay [2] (first compound 0.08 µM). Besides, the relative viability came out at 0.088 in assay [2] (first compound 0.253 µM); 0.0658 in assay [2] (first compound 0.8 µM); 0.073 in assay [2] (first compound 2.53 µM); 0.0765 in assay [2] (first compound 8 µM); 0.548 in assay [3] (first compound 0.08 µM); 0.599 in assay [3] (first compound 0.253 µM). Further, the results for the relative viability in assay [3] (first compound 0.8 µM), in assay [3] (first compound 2.53 µM) and in assay [3] (first compound 8 µM) were 0.553, 0.696 and 0.565, respectively.

For the cell line PC-3 [JPC-3], the relative viability was 0.837 in assay [1] (first compound 0.08 µM); 0.801 in assay [1] (first compound 0.253 µM); 0.859 in assay [1] (first compound 0.8 µM); 0.789 in assay [1] (first compound 2.53 µM); 0.744 in assay [1] (first compound 8 µM); 0.737 in assay [2] (first compound 0.08 µM). Also, the relative viability in assay [2] (first compound 0.253 µM) was 0.651; in assay [2] (first compound 0.8 µM) it was 0.689; in assay [2] (first compound 2.53 µM) it was 0.653; in assay [2] (first compound 8 µM), 0.745; in assay [3] (first compound 0.08 µM), 0.756; in assay [3] (first compound 0.253 µM), 0.736. In addition, the values for the relative viability in assay [3] (first compound 0.8 µM), in assay [3] (first compound 2.53 µM) and in assay [3] (first compound 8 µM) were 0.694, 0.716 and 0.726, respectively.

In the case of PC-14, the relative viability in assay [1] (first compound 0.08 µM) came to 1.09; in assay [1] (first compound 0.253 µM) it was 0.955; in assay [1] (first compound 0.8 µM) it was 1.06; in assay [1] (first compound 2.53 µM), 0.962; in assay [1] (first compound 8 µM), 0.923; in assay [2] (first compound 0.08 µM) it was 0.132. Also, the relative viability in assay [2] (first compound 0.253 µM) stood at 0.137; in assay [2] (first compound 0.8 µM) it was 0.151; in assay [2] (first compound 2.53 µM), 0.165; in assay [2] (first compound 8 µM) it was 0.14; in assay [3] (first compound 0.08 µM) it was 0.492; in assay [3] (first compound 0.253 µM), 0.576. In addition, the results for the relative viability in assay [3] (first compound 0.8 µM), in assay [3] (first compound 2.53 µM) and in assay [3] (first compound 8 µM) were 0.792, 0.541 and 0.821, respectively.

As to RERF-LC-KJ, the relative viability in assay [1] (first compound 0.08 µM) came out at 0.94; in assay [1] (first compound 0.253 µM), 0.824; in assay [1] (first compound 0.8 µM), 0.881; in assay [1] (first compound 2.53 µM) it was 0.671; in assay [1] (first compound 8 µM), 0.651; in assay [2] (first compound 0.08 µM), 1.18. The relative viability is 1.21 in assay [2] (first compound 0.253 µM); 1.16 in assay [2] (first compound 0.8 µM); 1.24 in assay [2] (first compound 2.53 µM); 1.22 in assay [2] (first compound 8 µM); 0.585 in assay [3] (first compound 0.08 µM); 0.496 in assay [3] (first compound 0.253 µM). Moreover, the figures for the relative viability in assay [3] (first compound 0.8 µM), in assay [3] (first compound 2.53 µM) and in assay [3] (first compound 8 µM) were 0.663, 0.567 and 0.561, respectively.

Consider SK-LU-1, for which the relative viability came out at 0.781 in assay [1] (first compound 0.08 µM); 0.871 in assay [1] (first compound 0.253 µM); 0.744 in assay [1] (first compound 0.8 µM); 0.366 in assay [1] (first compound 2.53 µM); 0.247 in assay [1] (first compound 8 µM); 0.206 in assay [2] (first compound 0.08 µM). Also, the relative viability in assay [2] (first compound 0.253 µM) was 0.201; in assay [2] (first compound 0.8 µM), 0.22; in assay [2] (first compound 2.53 µM), 0.216; in assay [2] (first compound 8 µM), 0.223; in assay [3] (first compound 0.08 µM) it was 0.503; in assay [3] (first compound 0.253 µM), 0.666. The values for the relative viability in assay [3] (first compound 0.8 µM), in assay [3] (first compound 2.53 µM) and in assay [3] (first compound 8 µM) were 0.636, 0.583 and 0.643, respectively.

On to SK-MES-1, for which the relative viability in assay [1] (first compound 0.08 µM) amounted to 1.3; in assay [1] (first compound 0.253 µM), 1.23; in assay [1] (first compound 0.8 µM) it was 1.24; in assay [1] (first compound 2.53 µM) it was 1.21; in assay [1] (first compound 8 µM), 1.26; in assay [2] (first compound 0.08 µM), 0.775. The relative viability in assay [2] (first compound 0.253 µM) was 0.765; in assay [2] (first compound 0.8 µM), 0.849; in assay [2] (first compound 2.53 µM), 0.853; in assay [2] (first compound 8 µM), 0.922; in assay [3] (first compound 0.08 µM) it was 0.358; in assay [3] (first compound 0.253 µM) it was 0.348. The relative viability in assay [3] (first compound 0.8 µM) came to 0.363; in assay [3] (first compound 2.53 µM) it was 0.348; in assay [3] (first compound 8 µM) it was 0.344.

For SW 1573, the relative viability in assay [1] (first compound 0.08 µM) is 1.12; in assay [1] (first compound 0.253 µM) it was 0.992; in assay [1] (first compound 0.8 µM), 1.03; in assay [1] (first compound 2.53 µM), 0.796; in assay [1] (first compound 8 µM), 1.1; in assay [2] (first compound 0.253 µM) it was 0.216. Also, the relative viability amounted to 0.174 in assay [2] (first compound 0.8 µM); 0.215 in assay [2] (first compound 2.53 µM); 0.207 in assay [2] (first compound 8 µM); 0.417 in assay [3] (first compound 0.08 µM); 0.509 in assay [3] (first compound 0.253 µM); 0.59 in assay [3] (first compound 0.8 µM). In addition, the relative viability in assay [3] (first compound 2.53 µM) is 0.502; in assay [3] (first compound 8 µM), 0.51.
